Read-outs that look alike come from different tables or passages of the source.
Key:
[1] = test system: female Sprague-Dawley rats, oxazolone (OX) contact dermatitis; experiment: In Vivo Inflammation Assay (oxazolone contact dermatitis model); set-up: key to Inflammation Assay Glucose Effect / GL *: +: the glucose level increased compared to vehicle; −: the glucose level decreased compared to vehicle; details: for Inflammation Assay Glucose Effect / Inflammation Assay Anti-inflammatory Effect: rat; for Inflammation Assay Glucose Effect: glucose level compared to vehicle; for Inflammation Assay Anti-inflammatory Effect: relative to control compound; for GL *: glucose effect
Description: In Vivo Inflammation Assay
Intact adult (6 month old) female Sprague-Dawley rats are used in the oxazolone (OX) contactdermatitis model. Rats were sensitized on the ventral abdomen with OX on Day 0. On Days 7 and 9, a randomly-selected ear was challenged (same ear each time) with OX; the other was treated with vehicle. Daily treatment begun on Day 7 and continued for 7d with test compounds at different doses and 1.3 mpk 6-methlyprednisolone or 0.1 mpk DEX as positive controls. The thickness of both ears are measured on Days 11 and 14. Necropsy occurred on Day 14. The rat is first weighed, then anesthetized in a CO2 chamber until near death. Approximately 5 ml whole blood is obtained by cardiac puncture. The rat is then examined for certain signs of death and completeness. Tissues are dissected in a highly stylized fashion. Then the following endpoints were evaluated: a) inhibiting ear inflammation induced by oxazalone, b) raising serum insulin, c) reducing serum ACTH, d) reducing spleen weight, e) reducing skin thickness, f) reducing body weight, g) increasing expression of bone-related genes with potential relationship to negative glucocorticoid effects on bone; e) changes in molecular markers that correlate with skin inflammation, skin thinning, muscle atrophy and glucose metabolism in liver. All blood samples were collected between 1330-1530 hours, ˜4-5 hrs after the last compound treatment.
Primary data for this assay are left and right ear thickness. Inter-ear thickness difference (etd) is used for the estimating the level of inflammation and effectiveness of the compounds is determined by their ability to reduce the increase the thickness of the inflamed ear. Back of the rat skin thickness, spleen weight, serum insulin as well as the effects of gcs on the expression of molecular markers in skin inflammation, skin atrophy, muscle atrophy and glucose metabolism in liver are measured. Data are analyzed by anova plus fisher plsd post-hoc test to identify intergroup differences.

GR = molecular target: T1, GR (Homo sapiens, UniProt P04150); experiment: Trans-Activation Modulation of Glucocorticoid Receptor Assay (GRAMMER), MMTV-LUC reporter, A549 cells; assay type: cell-based; set-up: endogenous in cells
T1 sequence (P04150 1-777): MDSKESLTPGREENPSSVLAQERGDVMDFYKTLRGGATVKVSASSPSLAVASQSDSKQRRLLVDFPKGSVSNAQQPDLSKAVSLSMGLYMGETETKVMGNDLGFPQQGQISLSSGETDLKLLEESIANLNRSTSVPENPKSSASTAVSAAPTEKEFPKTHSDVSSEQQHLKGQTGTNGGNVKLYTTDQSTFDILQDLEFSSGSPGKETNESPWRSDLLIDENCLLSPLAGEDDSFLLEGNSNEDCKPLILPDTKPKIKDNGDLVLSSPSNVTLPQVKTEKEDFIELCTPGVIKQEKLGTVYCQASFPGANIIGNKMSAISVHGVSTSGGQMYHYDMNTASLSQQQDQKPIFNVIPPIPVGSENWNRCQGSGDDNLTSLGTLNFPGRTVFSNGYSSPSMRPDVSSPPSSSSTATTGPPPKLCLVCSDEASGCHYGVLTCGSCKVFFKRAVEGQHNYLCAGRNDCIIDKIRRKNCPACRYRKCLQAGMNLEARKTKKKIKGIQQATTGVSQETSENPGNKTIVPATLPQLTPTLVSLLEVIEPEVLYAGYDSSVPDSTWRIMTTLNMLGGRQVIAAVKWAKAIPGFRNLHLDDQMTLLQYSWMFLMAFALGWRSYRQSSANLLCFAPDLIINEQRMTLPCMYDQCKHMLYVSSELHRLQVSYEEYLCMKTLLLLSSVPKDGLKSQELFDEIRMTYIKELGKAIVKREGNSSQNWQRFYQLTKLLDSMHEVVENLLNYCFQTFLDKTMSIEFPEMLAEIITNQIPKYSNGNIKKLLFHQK
Text: Trans-Activation Modulation of Glucocorticoid Receptor Assay
This assay assesses the ability of test compounds to control transcription from the MMTV-LUC reporter gene in lung adenocarcinoma A549 cells or HeLa cells, a human […] cell line that naturally expresses the human GR. The assay measures induction of a modified MMTV LTR/promoter linked to the LUC reporter gene.
The routine transient assay consists of plating 7,000-25,000 cells/well of a white, clear-bottom 96-well plate. Alternatively, 384-well plates can be used at a cell concentration of 10,000/well. The media that the cells are plated in is “exponential growth medium” which consists of phenol red-free RPMI1640 containing 10% FBS, 4 mM L-glutamine, 20 mM HEPES, 10 ug/mL human insulin, and 20 ug/mL gentamicin. Incubator conditions are 37° C. and 5% CO2. The transfection is done in batch mode. The cells are trypsinized and counted to the right cell number in the proper amount of fresh media. It is then gently mixed with the FuGene6/DNA mix and plated onto the 96 or 384-well plate, all the wells receive 100 uL or 40 uL, respectively, of medium+lipid/DNA complex then incubated 37° C. overnight. The transfection cocktail consists of serum-free OptiMEM, FuGene6 reagent and DNA. The manufacturer's (Roche Biochemical) protocol for cocktail setup is as follows: The lipid to DNA ratio is approximately 2.5:1 and the incubation time is 20 min at room temperature. Sixteen to 24 hours after transfection, the cells are treated with dexamethasone to a final concentration of 10 nM as well as the compound of interest, such that final DMSO (vehicle) concentration is equal to or less than 1%. Each plate also contains samples that are treated with 10 nM dexamethasone alone, which is used as the 100% activity control. The cells are exposed to the compounds for 24 hours. After 24 hours, the cells are lysed by a Promega cell culture lysis buffer for approximately 30 min and then the luciferase activity in the extracts is assayed in the 96-well format luminometer. In 384-well format, Steady-Glo (Promega) or Steady-Lite (PerkinElmer) can be used by adding an equal volume of reagent to the media present in each well. […] Antagonist activity is calculated by determining the decrease in dexamethasone-induced activity in response to compound treatment relative to samples that were treated with dexamethasone alone. […] This transactivation assay can be performed in an agonist and antagonist mode to identify these different activities.
The action of compounds is also tested in an antagonist mode (Anti-GRAMMER) in which the cells are treated with medium containing an agonist such as 10 nM DEX and the ability to agents to inhibit the activation by an agonist is measured.

[2] = A549 cells, inflection point, read-out: Transactivation A549 Cells GRAMMER IP
[3] = A549 cells, relative to 300 nM dexamethasone
[4] = A549, A549 cells, relative to 300 nM dexamethasone, read-out: Transactivation A549 Cells GRAMMER Emax
[5] = A549, Table 4, literature compounds, read-out: GRAMMER EMAX
[6] = Table 4, literature compounds, read-out: GRAMMER IP

SMILES	Inflammation Assay Glucose Effect [1]	EC50 (GR; [2]) [nM]	Transactivation A549 Cells GRAMMER Emax (GR; [3]) [%]	Emax (GR; [4]) [%]	other results
Cc1cccnc1C(O)C[C@]1(O)CCC2=Cc3c(cnn3-c3ccc(F)cc3)C[C@@]21C (single isomer, unassigned) [Example 1a]	−	116	64.8		Inflammation Assay Anti-inflammatory Effect [1]: + (the anti-inflammatory activity was equal to or greater than 40% of the effect generated by the control compound)
Cc1cccnc1C(O)C[C@]1(O)CCC2=Cc3c(cnn3-c3ccc(F)cc3)C[C@@]21C (single isomer, unassigned) [Example 1b]	+	236	27.4		
C[C@]12Cc3cnn(-c4ccc(F)cc4)c3C=C1CC[C@@]2(O)CC(O)c1ccccn1 (single isomer, unassigned) [Example 2a]	−	346		23.1	Inflammation Assay Anti-inflammatory Effect [1]: + (the anti-inflammatory activity was equal to or greater than 40% of the effect generated by the control compound)
C[C@]12Cc3cnn(-c4ccc(F)cc4)c3C=C1CC[C@@]2(O)CC(O)c1ccccn1 (single isomer, unassigned) [Example 2b]	−	255	26.8		Inflammation Assay Anti-inflammatory Effect [1]: + (the anti-inflammatory activity was equal to or greater than 40% of the effect generated by the control compound)
C[C@]12Cc3cnn(-c4ccc(F)cc4)c3C=C1CC[C@@]2(O)CC(O)c1cc(C(F)(F)F)ccn1 (single isomer, unassigned) [Example 5a]		52.1		15.1	
C[C@]12Cc3cnn(-c4ccc(F)cc4)c3C=C1CC[C@@]2(O)CC(O)c1cc(C(F)(F)F)ccn1 (single isomer, unassigned) [Example 5b]		158	18.1		
C[C@]12Cc3cnn(-c4ccc(F)cc4)c3C=C1CC[C@@]2(O)CC(O)c1ccc(F)cn1 (single isomer, unassigned) [Example 7a]		320		18.6	
C[C@]12Cc3cnn(-c4ccc(F)cc4)c3C=C1CC[C@@]2(O)CC(O)c1ccc(F)cn1 (single isomer, unassigned) [Example 7b]		85.5	16.6		
C[C@]12Cc3cnn(-c4ccc(F)cc4)c3C=C1CC[C@@]2(O)CC(O)c1cc(Cl)ccn1 (single isomer, unassigned) [Example 8a]	+	129		21.4	Inflammation Assay Anti-inflammatory Effect [1]: + (the anti-inflammatory activity was equal to or greater than 40% of the effect generated by the control compound)
C[C@]12Cc3cnn(-c4ccc(F)cc4)c3C=C1CC[C@@]2(O)CC(O)c1cc(Cl)ccn1 (single isomer, unassigned) [Example 8b]	+	26.7	25.2		Inflammation Assay Anti-inflammatory Effect [1]: + (the anti-inflammatory activity was equal to or greater than 40% of the effect generated by the control compound)
C[C@]12Cc3cnn(-c4ccc(F)cc4)c3C=C1CC[C@@]2(O)CC(O)c1cc(Br)ccn1 (single isomer, unassigned) [Example 10a]		17.4	8.2		
C[C@]12Cc3cnn(-c4ccc(F)cc4)c3C=C1CC[C@@]2(O)CC(O)c1cc(Br)ccn1 (single isomer, unassigned) [Example 10b]		80	19.8		
C[C@]12Cc3cnn(-c4ccc(F)cc4)c3C=C1CC[C@@]2(O)C#Cc1ccccc1 [Ex. 1 WO 04/075840 A2, reference compound]					GL * ([1]; Table 4, literature compounds): −; Emax (GR; [5]): 6.19%; EC50 (GR; [6]): 385 nM
C[C@]12Cc3cnn(-c4ccc(F)cc4)c3C=C1CCC[C@@H]2[C@@H](O)Cc1ccccc1 [Ex. 22 WO 03/086294 A2, reference compound]					GL * ([1]; Table 4, literature compounds): −; Emax (GR; [5]): 61%; EC50 (GR; [6]): 122 nM
C[C@]12Cc3cnn(-c4ccc(F)cc4)c3C=C1CCC[C@@H]2[C@@H](O)CCc1ccccc1 [Ex. 30 WO 03/086294 A2, reference compound]					GL * ([1]; Table 4, literature compounds): −; Emax (GR; A549, read-out: GRAMMER EMAX): 48.8%; EC50 (GR; GRAMMER IP, Table 4, literature compounds): 166 nM
C[C@]12Cc3cnn(-c4ccc(F)cc4)c3C=C1CCC[C@@H]2[C@@H](O)c1ccccc1 [Ex. 35 WO 03/86294 A2, reference compound]					GL * ([1]; Table 4, literature compounds): −; Emax (GR; [5]): 40.2%; EC50 (GR; [6]): 195 nM
CO[C@@]1(CCc2ccccc2Cl)CCC2=Cc3c(cnn3-c3ccc(F)cc3)C[C@@]21C [Ex. 103 WO 04/075840 A2, reference compound]					AI* ([1]; Table 4, literature compounds, anti-inflammatory effect): + (the anti-inflammatory activity was equal to or greater than 40% of the effect generated by the control compound); GL * ([1]; Table 4, literature compounds): +; Emax (GR; [5]): 115%; EC50 (GR; [6]): 162 nM
C[C@]12Cc3cnn(-c4ccc(F)cc4)c3C=C1CC[C@@]2(O)CC(O)c1ncccc1F (stereo partly drawn) [Example 4, (4αS,5R)-1-(4-fluorophenyl)-5-[2-(3-fluoropyridin-2-yl)-2-hydroxyethyl]-4α-methyl-1,4,4α,5,6,7-hexahydrocyclopenta[f]indazol-5-ol]		698		17.5	
C[C@]12Cc3cnn(-c4ccc(F)cc4)c3C=C1CC[C@@]2(O)CC(O)c1ccc(C(F)(F)F)cn1 (stereo partly drawn) [Example 6, (4αS,5R)-1-(4-fluorophenyl)-5-{2-hydroxy-2-[5-(trifluoromethyl)pyridin-2-yl]ethyl}-4α-methyl-1,4,4α,5,6,7-hexahydrocyclopenta[f]indazol-5-ol]		328		18.6	

Reference: patent publication US20120214846A1, “HEXAHYDROCYCLOPENTYL[F]INDAZOLE PYRIDYL ETHANOLS AND DERIVATIVES THEREOF AS SELECTIVE GLUCOCORTICOID RECEPTOR MODULATORS” (MERCK SHARP & DOHME CORP, priority 2009, published 2012)
